Results reported in ChEMBL document CHEMBL1144832, “An efficient one-pot synthesis of tethered cyclohexadiene enaminonitriles from methyl-ketones: an effective route to quinazolines” (Bioorg Med Chem Lett, 2008).

Key:
Saccharomyces cerevisiae = experiment: Antimicrobial activity against Saccharomyces cerevisiae; assay type: functional
Bacillus subtilis = experiment: Antimicrobial activity against Bacillus subtilis; assay type: functional
Jurkat = experiment: Cytotoxicity against human Jurkat cells; assay type: functional, cell-based
Escherichia coli = experiment: Antimicrobial activity against Escherichia coli; assay type: functional
ScN2a = experiment: Cytotoxicity against mouse ScN2a cells; assay type: functional

CC1(c2ccc(Br)cc2)CC(c2ccc(Br)cc2)=Cc2ncnc(N)c21 (stereo unspecified)
MIC (Saccharomyces cerevisiae): ≥ 197 µM
MIC (Bacillus subtilis): ≥ 163 µM
CC50 (Jurkat): 12.7 µM
MIC (Escherichia coli): ≥ 189 µM

CC1(c2ccc(-c3ccccc3)cc2)CC(c2ccc(-c3ccccc3)cc2)=CC(N)=C1C#N (stereo unspecified)
MIC (Saccharomyces cerevisiae): ≥ 197 µM
MIC (Bacillus subtilis): ≥ 163 µM
CC50 (Jurkat): 19.3 µM
MIC (Escherichia coli): ≥ 189 µM

N#Cc1c(N)nc(Sc2ccccc2N)c(C#N)c1-c1ccco1
Activity (ScN2a): 18 µM

CC1(c2cccs2)CC(c2cccs2)=Cc2ncnc(N)c21 (stereo unspecified)
MIC (Saccharomyces cerevisiae): ≥ 197 µM
MIC (Bacillus subtilis): ≥ 163 µM
CC50 (Jurkat): 15.4 µM
MIC (Escherichia coli): ≥ 189 µM

CC1(c2ccc(F)cc2)CC(c2ccc(F)cc2)=CC(N)=C1C#N (stereo unspecified)
MIC (Saccharomyces cerevisiae): ≥ 197 µM
MIC (Bacillus subtilis): ≥ 163 µM
CC50 (Jurkat): 19.4 µM
MIC (Escherichia coli): ≥ 189 µM

CC1(c2ccc3ccccc3c2)CC(c2ccc3ccccc3c2)=Cc2ncnc(N)c21 (stereo unspecified)
MIC (Saccharomyces cerevisiae): ≥ 197 µM
MIC (Bacillus subtilis): ≥ 163 µM
CC50 (Jurkat): 9.37 µM
MIC (Escherichia coli): ≥ 189 µM

CC1(c2ccccc2)CC(c2ccccc2)=Cc2ncnc(N)c21 (stereo unspecified)
MIC (Saccharomyces cerevisiae): ≥ 197 µM
MIC (Bacillus subtilis): ≥ 163 µM
CC50 (Jurkat): 17.6 µM
MIC (Escherichia coli): ≥ 189 µM

N#Cc1c(N)nc(Sc2ccc(Cl)cc2)c(C#N)c1-c1ccccc1
Activity (ScN2a): 35 µM

CC1(c2ccc(Br)s2)CC(c2ccc(Br)s2)=Cc2ncnc(N)c21 (stereo unspecified)
MIC (Saccharomyces cerevisiae): ≥ 197 µM
MIC (Bacillus subtilis): ≥ 163 µM
CC50 (Jurkat): 9.51 µM
MIC (Escherichia coli): ≥ 189 µM

CC1(c2ccc(Br)cc2)CC(c2ccc(Br)cc2)=CC(N)=C1C#N (stereo unspecified)
MIC (Saccharomyces cerevisiae): ≥ 197 µM
MIC (Bacillus subtilis): ≥ 163 µM
CC50 (Jurkat): 20.5 µM
MIC (Escherichia coli): ≥ 189 µM

CC1(c2ccccc2)CC(c2ccccc2)=CC(N)=C1C#N (stereo unspecified)
MIC (Saccharomyces cerevisiae): ≥ 197 µM
MIC (Bacillus subtilis): ≥ 163 µM
CC50 (Jurkat): 15.1 µM
MIC (Escherichia coli): ≥ 189 µM

CC1(c2cccs2)CC(c2cccs2)=CC(N)=C1C#N (stereo unspecified)
MIC (Saccharomyces cerevisiae): ≥ 197 µM
MIC (Bacillus subtilis): ≥ 163 µM
CC50 (Jurkat): 172 µM
MIC (Escherichia coli): ≥ 189 µM

N#Cc1c(N)nc(Sc2ccc(Cl)cc2)c(C#N)c1-c1ccco1
Activity (ScN2a): 19 µM

CCCCCCC1=CC(N)=C(C#N)C(C)(CCCCCC)C1 (stereo unspecified)
MIC (Saccharomyces cerevisiae): ≥ 197 µM
MIC (Bacillus subtilis): ≥ 163 µM
CC50 (Jurkat): 46.8 µM
MIC (Escherichia coli): ≥ 189 µM

CC1(c2ccc(-c3ccccc3)cc2)CC(c2ccc(-c3ccccc3)cc2)=Cc2ncnc(N)c21 (stereo unspecified)
MIC (Saccharomyces cerevisiae): ≥ 197 µM
MIC (Bacillus subtilis): ≥ 163 µM
CC50 (Jurkat): 10.4 µM
MIC (Escherichia coli): ≥ 189 µM

CC1=C(/C=C/C2=CC(N)=C(C#N)C(C)(/C=C/C3=C(C)CCCC3(C)C)C2)C(C)(C)CCC1 (stereo unspecified)
MIC (Saccharomyces cerevisiae): ≥ 197 µM
MIC (Bacillus subtilis): ≥ 163 µM
CC50 (Jurkat): 12.7 µM
MIC (Escherichia coli): ≥ 189 µM

CCCCCCC1=Cc2ncnc(N)c2C(C)(CCCCCC)C1 (stereo unspecified)
MIC (Saccharomyces cerevisiae): ≥ 197 µM
MIC (Bacillus subtilis): ≥ 163 µM
CC50 (Jurkat): 12.6 µM
MIC (Escherichia coli): ≥ 189 µM

CC1(c2ccc3ccccc3c2)CC(c2ccc3ccccc3c2)=CC(N)=C1C#N (stereo unspecified)
MIC (Saccharomyces cerevisiae): ≥ 197 µM
MIC (Bacillus subtilis): ≥ 163 µM
IC50 (Jurkat): 19 µM
MIC (Escherichia coli): ≥ 189 µM

CC1(c2ccc(Br)s2)CC(c2ccc(Br)s2)=CC(N)=C1C#N (stereo unspecified)
MIC (Saccharomyces cerevisiae): ≥ 197 µM
MIC (Bacillus subtilis): ≥ 163 µM
CC50 (Jurkat): 13.9 µM
MIC (Escherichia coli): ≥ 189 µM

CC1=C(/C=C/C2=Cc3ncnc(N)c3C(C)(/C=C/C3=C(C)CCCC3(C)C)C2)C(C)(C)CCC1 (stereo unspecified)
MIC (Saccharomyces cerevisiae): ≥ 197 µM
MIC (Bacillus subtilis): ≥ 163 µM
CC50 (Jurkat): 12.8 µM
MIC (Escherichia coli): ≥ 189 µM

CC1(c2ccc(F)cc2)CC(c2ccc(F)cc2)=Cc2ncnc(N)c21 (stereo unspecified)
MIC (Saccharomyces cerevisiae): ≥ 197 µM
MIC (Bacillus subtilis): ≥ 163 µM
CC50 (Jurkat): 3.24 µM
MIC (Escherichia coli): ≥ 189 µM

N#Cc1c(N)nc(Sc2ccc(Cl)cc2)c(C#N)c1-c1cccs1
Activity (ScN2a): 16 µM
